In PMC6891286, “Towards the Development of an In vivo Chemical Probe for Cyclin G Associated Kinase (GAK)” (Molecules, 2019):

Legend:
Test in all cases: KINOMEscan
Format in all cases: binding
Conditions in all cases: 35 at 1 µM; read-out: % inhibition
[1] = biological target: T1, ACVR2A (Homo sapiens, UniProt P27037)
T1 construct: purchased Eurofins DiscoverX (KINOMEscan)
Experimental: (§1) KinomeScan Assay on 35 was performed as previously described at EuroFins DiscoverX (Fremont, CA, USA).

[2] = biological target: T2, AKT1 (Homo sapiens, UniProt P31749)
T2 construct: purchased Eurofins DiscoverX (KINOMEscan)
Experimental: as §1

[3] = biological target: T3, AMPK-alpha2 (Homo sapiens, UniProt P54646)
T3 construct: purchased Eurofins DiscoverX (KINOMEscan)
Experimental: as §1

[4] = biological target: T4, ASK1 (Homo sapiens, UniProt Q99683)
T4 construct: purchased Eurofins DiscoverX (KINOMEscan)
Experimental: as §1

[5] = biological target: T5, BMPR1A (Homo sapiens, UniProt P36894)
T5 construct: purchased Eurofins DiscoverX (KINOMEscan)
Experimental: as §1

[6] = biological target: T6, CAMKK2 (Homo sapiens, UniProt Q96RR4)
T6 construct: purchased Eurofins DiscoverX (KINOMEscan)
Experimental: as §1

[7] = biological target: T7, CDC2L5 (Homo sapiens, UniProt Q14004)
T7 construct: purchased Eurofins DiscoverX (KINOMEscan)
Experimental: as §1

[8] = biological target: T8, CLK4 (Homo sapiens, UniProt Q9HAZ1)
T8 construct: purchased Eurofins DiscoverX (KINOMEscan)
Experimental: as §1

[9] = biological target: T9, CSF1R-autoinhibited (Homo sapiens, UniProt P07333)
T9 construct: purchased Eurofins DiscoverX (KINOMEscan)
Experimental: as §1

[10] = biological target: T10, CSNK1G3 (Homo sapiens, UniProt Q9Y6M4)
T10 construct: purchased Eurofins DiscoverX (KINOMEscan)
Experimental: as §1

[11] = biological target: T11, CSNK2A1 (Homo sapiens, UniProt P68400)
T11 construct: purchased Eurofins DiscoverX (KINOMEscan)
Experimental: as §1

[12] = biological target: T12, DAPK1 (Homo sapiens, UniProt P53355)
T12 construct: purchased Eurofins DiscoverX (KINOMEscan)
Experimental: as §1

[13] = biological target: T13, DMPK2 (Homo sapiens, UniProt Q6DT37)
T13 construct: purchased Eurofins DiscoverX (KINOMEscan)
Experimental: as §1

[14] = biological target: T14, EPHA1 (Homo sapiens, UniProt P21709)
T14 construct: purchased Eurofins DiscoverX (KINOMEscan)
Experimental: as §1

[15] = biological target: T15, EPHA6 (Homo sapiens, UniProt Q9UF33)
T15 construct: purchased Eurofins DiscoverX (KINOMEscan)
Experimental: as §1

[16] = biological target: T16, EPHA7 (Homo sapiens, UniProt Q15375)
T16 construct: purchased Eurofins DiscoverX (KINOMEscan)
Experimental: as §1

[17] = biological target: T17, GRK3 (Homo sapiens, UniProt P35626)
T17 construct: purchased Eurofins DiscoverX (KINOMEscan)
Experimental: as §1

[18] = biological target: T18, HIPK2 (Homo sapiens, UniProt Q9H2X6)
T18 construct: purchased Eurofins DiscoverX (KINOMEscan)
Experimental: as §1

[19] = biological target: T19, INSR (Homo sapiens, UniProt P06213)
T19 construct: purchased Eurofins DiscoverX (KINOMEscan)
Experimental: as §1

[20] = biological target: T20, JAK1(JH2domain-pseudokinase) (Homo sapiens, UniProt P23458)
T20 construct: JAK1(JH2domain-pseudokinase); purchased Eurofins DiscoverX (KINOMEscan)
Experimental: as §1

[21] = biological target: T21, KIT(A829P) (Homo sapiens, UniProt P10721, A829P)
T21 construct: purchased Eurofins DiscoverX (KINOMEscan)
Experimental: as §1

[22] = biological target: T22, LIMK2 (Homo sapiens, UniProt P53671)
T22 construct: purchased Eurofins DiscoverX (KINOMEscan)
Experimental: as §1

[23] = biological target: T23, MAP4K2 (Homo sapiens, UniProt Q12851)
T23 construct: purchased Eurofins DiscoverX (KINOMEscan)
Experimental: as §1

[24] = biological target: T24, MARK2 (Homo sapiens, UniProt Q7KZI7)
T24 construct: purchased Eurofins DiscoverX (KINOMEscan)
Experimental: as §1

[25] = biological target: T25, MTOR (Homo sapiens, UniProt P42345)
T25 construct: purchased Eurofins DiscoverX (KINOMEscan)
Experimental: as §1

[26] = biological target: T26, MYLK (Homo sapiens, UniProt Q15746)
T26 construct: purchased Eurofins DiscoverX (KINOMEscan)
Experimental: as §1

[27] = biological target: T27, PAK7 (Homo sapiens, UniProt Q9P286)
T27 construct: purchased Eurofins DiscoverX (KINOMEscan)
Experimental: as §1

[28] = biological target: T28, PIK3CA (Homo sapiens, UniProt P42336)
T28 construct: purchased Eurofins DiscoverX (KINOMEscan)
Experimental: as §1

[29] = biological target: T29, PIM2 (Homo sapiens, UniProt Q9P1W9)
T29 construct: purchased Eurofins DiscoverX (KINOMEscan)
Experimental: as §1

[30] = biological target: T30, PIP5K1A (Homo sapiens, UniProt Q99755)
T30 construct: purchased Eurofins DiscoverX (KINOMEscan)
Experimental: as §1

[31] = biological target: T31, PKNB(M.tuberculosis) (Mycobacterium tuberculosis, UniProt P9WI81)
T31 construct: purchased Eurofins DiscoverX (KINOMEscan)
Experimental: as §1

[32] = biological target: T32, PRKCI (Homo sapiens, UniProt P41743)
T32 construct: purchased Eurofins DiscoverX (KINOMEscan)
Experimental: as §1

[33] = biological target: T33, PRKX (Homo sapiens, UniProt P51817)
T33 construct: purchased Eurofins DiscoverX (KINOMEscan)
Experimental: as §1

[34] = biological target: T34, RET(V804M) (Homo sapiens, UniProt P07949, V804M)
T34 construct: purchased Eurofins DiscoverX (KINOMEscan)
Experimental: as §1

[35] = biological target: T35, ROCK2 (Homo sapiens, UniProt O75116)
T35 construct: purchased Eurofins DiscoverX (KINOMEscan)
Experimental: as §1

[36] = biological target: T36, RSK3(Kin.Dom.2-C-terminal) (Homo sapiens, UniProt Q15349)
T36 construct: RSK3(Kin.Dom.2-C-terminal); purchased Eurofins DiscoverX (KINOMEscan)
Experimental: as §1

[37] = biological target: T37, SGK3 (Homo sapiens, UniProt Q96BR1)
T37 construct: purchased Eurofins DiscoverX (KINOMEscan)
Experimental: as §1

[38] = biological target: T38, TEC (Homo sapiens, UniProt P42680)
T38 construct: purchased Eurofins DiscoverX (KINOMEscan)
Experimental: as §1

[39] = biological target: T39, TNIK (Homo sapiens, UniProt Q9UKE5)
T39 construct: purchased Eurofins DiscoverX (KINOMEscan)
Experimental: as §1

[40] = biological target: T40, TRPM6 (Homo sapiens, UniProt Q9BX84)
T40 construct: purchased Eurofins DiscoverX (KINOMEscan)
Experimental: as §1

[41] = biological target: T41, YANK2 (Homo sapiens, UniProt Q9NY57)
T41 construct: purchased EuroFins DiscoverX (Fremont, CA, USA)
Experimental: as §1

[42] = biological target: T42, ZAP70 (Homo sapiens, UniProt P43403)
T42 construct: purchased EuroFins DiscoverX (Fremont, CA, USA)
Experimental: as §1

T33 sequence (P51817 whole entry): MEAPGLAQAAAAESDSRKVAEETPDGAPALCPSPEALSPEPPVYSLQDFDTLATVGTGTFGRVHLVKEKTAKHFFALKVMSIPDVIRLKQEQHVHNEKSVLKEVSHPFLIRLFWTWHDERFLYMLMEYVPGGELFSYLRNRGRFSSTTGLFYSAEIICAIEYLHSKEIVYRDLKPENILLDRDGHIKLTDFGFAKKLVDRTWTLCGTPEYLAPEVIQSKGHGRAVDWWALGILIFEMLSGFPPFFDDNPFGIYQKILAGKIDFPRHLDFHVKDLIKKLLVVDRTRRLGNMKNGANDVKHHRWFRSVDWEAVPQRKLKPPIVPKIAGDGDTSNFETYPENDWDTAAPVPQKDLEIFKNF
T22 sequence (P53671 whole entry): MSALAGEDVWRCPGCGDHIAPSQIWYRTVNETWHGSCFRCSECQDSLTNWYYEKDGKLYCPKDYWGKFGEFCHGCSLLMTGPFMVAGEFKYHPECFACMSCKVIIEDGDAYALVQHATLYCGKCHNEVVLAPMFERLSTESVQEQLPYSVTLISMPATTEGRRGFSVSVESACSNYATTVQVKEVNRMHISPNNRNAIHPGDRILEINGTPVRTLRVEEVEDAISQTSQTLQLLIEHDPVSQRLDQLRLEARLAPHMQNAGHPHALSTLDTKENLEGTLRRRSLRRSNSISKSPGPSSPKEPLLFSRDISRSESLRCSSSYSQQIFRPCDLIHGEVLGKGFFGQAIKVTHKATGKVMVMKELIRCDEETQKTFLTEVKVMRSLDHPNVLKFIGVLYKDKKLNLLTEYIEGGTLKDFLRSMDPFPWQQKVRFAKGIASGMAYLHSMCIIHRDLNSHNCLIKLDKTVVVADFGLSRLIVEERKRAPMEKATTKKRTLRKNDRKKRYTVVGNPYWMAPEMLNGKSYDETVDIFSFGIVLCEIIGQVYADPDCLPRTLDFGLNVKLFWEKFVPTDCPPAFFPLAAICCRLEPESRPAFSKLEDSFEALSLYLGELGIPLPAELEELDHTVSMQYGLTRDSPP
T14 sequence (P21709 26-976): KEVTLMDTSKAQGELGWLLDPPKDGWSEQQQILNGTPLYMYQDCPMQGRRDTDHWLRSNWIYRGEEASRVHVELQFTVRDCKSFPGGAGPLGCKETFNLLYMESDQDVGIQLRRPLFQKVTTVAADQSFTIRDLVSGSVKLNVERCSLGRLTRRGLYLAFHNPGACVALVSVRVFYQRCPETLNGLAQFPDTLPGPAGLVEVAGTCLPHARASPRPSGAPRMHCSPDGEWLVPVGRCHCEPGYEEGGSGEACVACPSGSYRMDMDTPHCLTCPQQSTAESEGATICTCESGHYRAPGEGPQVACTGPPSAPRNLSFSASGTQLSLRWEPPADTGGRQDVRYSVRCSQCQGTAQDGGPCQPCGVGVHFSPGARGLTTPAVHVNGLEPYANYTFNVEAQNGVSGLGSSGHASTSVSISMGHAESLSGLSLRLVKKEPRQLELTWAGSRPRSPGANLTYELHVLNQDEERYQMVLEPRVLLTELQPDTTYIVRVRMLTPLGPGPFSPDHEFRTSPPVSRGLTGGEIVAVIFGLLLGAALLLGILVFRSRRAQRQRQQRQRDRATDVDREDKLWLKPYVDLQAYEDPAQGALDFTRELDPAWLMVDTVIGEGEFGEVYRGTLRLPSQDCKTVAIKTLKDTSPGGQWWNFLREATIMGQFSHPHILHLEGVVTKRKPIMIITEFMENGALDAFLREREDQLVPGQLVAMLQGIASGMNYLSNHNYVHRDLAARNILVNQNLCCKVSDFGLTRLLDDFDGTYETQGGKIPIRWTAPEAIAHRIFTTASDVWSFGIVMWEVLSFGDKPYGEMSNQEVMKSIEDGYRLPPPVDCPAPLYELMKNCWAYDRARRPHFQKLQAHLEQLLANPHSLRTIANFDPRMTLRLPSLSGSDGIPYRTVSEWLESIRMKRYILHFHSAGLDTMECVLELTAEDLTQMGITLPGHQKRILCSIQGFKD
T5 sequence (P36894 24-532): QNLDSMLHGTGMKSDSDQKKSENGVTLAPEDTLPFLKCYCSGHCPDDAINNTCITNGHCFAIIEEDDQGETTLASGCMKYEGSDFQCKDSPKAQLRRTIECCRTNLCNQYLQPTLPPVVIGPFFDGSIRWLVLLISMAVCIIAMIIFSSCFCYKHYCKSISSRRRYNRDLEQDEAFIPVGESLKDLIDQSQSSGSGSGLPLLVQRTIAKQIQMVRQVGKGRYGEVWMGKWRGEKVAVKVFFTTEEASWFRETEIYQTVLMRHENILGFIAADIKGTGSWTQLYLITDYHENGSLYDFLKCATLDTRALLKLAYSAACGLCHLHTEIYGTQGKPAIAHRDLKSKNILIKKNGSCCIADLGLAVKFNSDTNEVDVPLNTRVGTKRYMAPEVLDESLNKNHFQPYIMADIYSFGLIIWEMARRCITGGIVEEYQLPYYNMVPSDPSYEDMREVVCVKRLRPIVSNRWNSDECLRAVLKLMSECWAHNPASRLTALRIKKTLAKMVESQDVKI
T2 sequence (P31749 whole entry): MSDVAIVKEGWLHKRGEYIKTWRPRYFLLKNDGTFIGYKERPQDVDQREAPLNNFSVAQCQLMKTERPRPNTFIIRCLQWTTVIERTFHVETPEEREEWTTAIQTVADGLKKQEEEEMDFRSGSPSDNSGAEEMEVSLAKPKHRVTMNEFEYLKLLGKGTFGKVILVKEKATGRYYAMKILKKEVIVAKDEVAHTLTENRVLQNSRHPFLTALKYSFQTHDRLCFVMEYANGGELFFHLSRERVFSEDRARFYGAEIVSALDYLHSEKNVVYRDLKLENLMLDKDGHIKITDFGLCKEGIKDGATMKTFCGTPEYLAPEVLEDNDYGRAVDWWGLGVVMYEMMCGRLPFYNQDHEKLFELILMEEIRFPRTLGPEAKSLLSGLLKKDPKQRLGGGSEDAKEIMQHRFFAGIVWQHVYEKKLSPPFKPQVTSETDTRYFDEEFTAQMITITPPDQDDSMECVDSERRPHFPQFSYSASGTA
T6 sequence (Q96RR4 whole entry): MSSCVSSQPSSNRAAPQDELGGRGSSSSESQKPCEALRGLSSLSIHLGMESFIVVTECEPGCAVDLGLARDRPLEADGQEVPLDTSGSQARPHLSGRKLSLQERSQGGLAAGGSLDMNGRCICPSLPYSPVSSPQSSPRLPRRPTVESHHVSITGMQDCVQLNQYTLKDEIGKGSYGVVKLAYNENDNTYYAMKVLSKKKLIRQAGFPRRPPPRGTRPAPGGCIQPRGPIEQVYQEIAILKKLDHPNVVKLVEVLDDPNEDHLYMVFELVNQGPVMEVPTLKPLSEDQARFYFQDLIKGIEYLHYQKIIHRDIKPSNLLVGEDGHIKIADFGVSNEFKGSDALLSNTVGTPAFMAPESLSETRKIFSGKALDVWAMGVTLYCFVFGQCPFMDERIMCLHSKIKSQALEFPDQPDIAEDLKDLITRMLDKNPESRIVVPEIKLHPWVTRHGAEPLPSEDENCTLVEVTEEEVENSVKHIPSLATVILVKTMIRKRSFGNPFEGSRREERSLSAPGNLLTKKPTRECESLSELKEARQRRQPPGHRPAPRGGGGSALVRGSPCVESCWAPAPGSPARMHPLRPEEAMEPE
T38 sequence (P42680 whole entry): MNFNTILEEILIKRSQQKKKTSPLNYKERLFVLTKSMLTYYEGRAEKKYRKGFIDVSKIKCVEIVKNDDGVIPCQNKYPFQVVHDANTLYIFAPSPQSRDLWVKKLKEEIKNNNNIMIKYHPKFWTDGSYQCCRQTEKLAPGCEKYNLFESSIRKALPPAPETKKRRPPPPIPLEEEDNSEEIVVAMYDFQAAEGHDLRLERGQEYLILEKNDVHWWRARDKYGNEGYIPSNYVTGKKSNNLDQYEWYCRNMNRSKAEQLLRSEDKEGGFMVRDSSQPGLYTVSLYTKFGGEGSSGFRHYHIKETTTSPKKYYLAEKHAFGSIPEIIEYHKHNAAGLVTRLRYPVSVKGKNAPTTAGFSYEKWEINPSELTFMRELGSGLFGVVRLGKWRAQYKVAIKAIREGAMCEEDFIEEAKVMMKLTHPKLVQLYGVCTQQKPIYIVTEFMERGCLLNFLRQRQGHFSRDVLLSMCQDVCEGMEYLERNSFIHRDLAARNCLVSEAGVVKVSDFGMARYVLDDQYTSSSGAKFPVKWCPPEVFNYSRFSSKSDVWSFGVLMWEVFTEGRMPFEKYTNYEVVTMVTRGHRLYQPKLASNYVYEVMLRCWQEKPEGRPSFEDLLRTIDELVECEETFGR
T10 sequence (Q9Y6M4 whole entry): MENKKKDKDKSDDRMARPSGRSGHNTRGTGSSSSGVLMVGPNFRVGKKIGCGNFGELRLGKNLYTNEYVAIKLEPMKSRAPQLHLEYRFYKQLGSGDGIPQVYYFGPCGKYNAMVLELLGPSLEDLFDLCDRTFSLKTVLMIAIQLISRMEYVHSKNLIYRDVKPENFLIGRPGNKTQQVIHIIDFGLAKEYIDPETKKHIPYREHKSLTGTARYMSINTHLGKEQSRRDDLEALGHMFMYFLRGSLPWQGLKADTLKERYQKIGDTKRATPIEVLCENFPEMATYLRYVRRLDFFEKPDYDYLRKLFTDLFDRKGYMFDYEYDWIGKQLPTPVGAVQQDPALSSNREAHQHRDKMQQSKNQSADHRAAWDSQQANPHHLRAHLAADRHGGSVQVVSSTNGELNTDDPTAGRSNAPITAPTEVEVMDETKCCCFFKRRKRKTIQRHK
T20 sequence (P23458 583-855 limits assumed): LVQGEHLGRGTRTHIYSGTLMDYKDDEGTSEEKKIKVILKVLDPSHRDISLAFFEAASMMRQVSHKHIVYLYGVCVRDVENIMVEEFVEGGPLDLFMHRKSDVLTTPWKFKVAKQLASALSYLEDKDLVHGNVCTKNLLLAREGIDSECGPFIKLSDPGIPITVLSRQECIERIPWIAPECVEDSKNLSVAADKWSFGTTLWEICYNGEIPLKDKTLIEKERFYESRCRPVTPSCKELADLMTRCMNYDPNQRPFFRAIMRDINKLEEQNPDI

Brc1ccc2nccc(Nc3ccc4cn[nH]c4c3)c2c1 [Compound 35, 6-Bromo-N-(1H-indazol-6-yl)quinolin-4-amine]
activity at 1 µM [1]: 100% | activity at 1 µM [2]: 100% | activity at 1 µM [3]: 100% | activity at 1 µM [4]: 100% | activity at 1 µM [5]: 100% | activity at 1 µM [6]: 100% | activity at 1 µM [7]: 73% | activity at 1 µM [8]: 100% | activity at 1 µM [9]: 100% | activity at 1 µM [10]: 100% | activity at 1 µM [11]: 100% | activity at 1 µM [12]: 100% | activity at 1 µM [13]: 73% | activity at 1 µM [14]: 100% | activity at 1 µM [15]: 100% | activity at 1 µM [16]: 100% | activity at 1 µM [17]: 76% | activity at 1 µM [18]: 88% | activity at 1 µM [19]: 99% | activity at 1 µM [20]: 88% | activity at 1 µM [21]: 100% | activity at 1 µM [22]: 100% | activity at 1 µM [23]: 100% | activity at 1 µM [24]: 100% | activity at 1 µM [25]: 100% | activity at 1 µM [26]: 100% | activity at 1 µM [27]: 100% | activity at 1 µM [28]: 100% | activity at 1 µM [29]: 100% | activity at 1 µM [30]: 100% | activity at 1 µM [31]: 77% | activity at 1 µM [32]: 60% | activity at 1 µM [33]: 100% | activity at 1 µM [34]: 100% | activity at 1 µM [35]: 91% | activity at 1 µM [36]: 100% | activity at 1 µM [37]: 100% | activity at 1 µM [38]: 100% | activity at 1 µM [39]: 97% | activity at 1 µM [40]: 100% | activity at 1 µM [41]: 100% | activity at 1 µM [42]: 100%
